The values below come from US4248880A, “Treatment of gastric ulcers with naphthimidazole derivatives” (Hoffmann-La Roche Inc., priority 1977, dated 1981).

Data set [1] deals with stress-induced gastric ulcers. As to the kind of experiment: inhibition of the formation of stress-induced gastric ulcers in rats (water bath). In kind it is in vivo. Conditions: Rattus norvegicus, po, 6 h; female rats 140 to 160 g; per os; water bath 22.5° C. for six hours; 10 rats per dosage; Probit method; read-out: ED50 (effective dosage at which 50% of the rats are protected against stress-induced ulcers). The method, then:
After six hours in the water, the animals were sacrificed and the incidence of ulcers noted. The ED50, that is, the dosage at which 50% of the 10 rats utilized per dosage are protected against stress-induced ulcers by the test compound was then determined according to the Probit method.

The test system of another data set is gastric acid secretion. As to the kind of experiment: inhibition of 4-methylhistamine-stimulated gastric acid secretion in the conscious Heidenhain pouch dog. The format is in vivo. The following applies: Canis lupus familiaris, oral, 4-methylhistamine dihydrochloride infusion i.v., read-out: effective therapeutic dosage (per os amount causing 60-80% inhibition of acid secretion produced by 4-methylhistamine). An excerpt:
A part of the stomach fundus of dogs is separated from the remaining stomach in the form of a pouch according to the Heidenhain technique described by Rudick et al in J. Surgical Research, vol. 7, pp 383-398 (1967). The pouch is fitted with a steel canula conducted externally through the abdominal wall and the operation is allowed to heal. Utilizing a conscious dog prepared as above, gastric secretion is stimulated by an infusion of 4-methylhistaminedihydrochloride (40 μ/kg per hr., i.v.) which selectively stimulates histamine H2 receptors. When volumes of fifteen minute samples of gastric secretion and pH levels appear constant, the test substance is administered orally and samples again taken. […] In the context of this procedure, an effective therapeutic dosage may be defined as the amount of test substance administered per os which causes an inhibition of from 60-80% of the acid secretion produced by the administration of 4-methylhistamine.

A short description of a further data set: LD50 in the mouse. The following applies: in vivo, po, per os.

Structures are written as SMILES.

For the molecule `Cc1ccc(CSc2nc3cc4ccccc4cc3[nH]2)nc1` [2-/[(5-methyl-2-pyridyl)-methyl]thio/-1H-naphth[2,3-d]imidazole], in data set [1], the ED50 was found to be 31 mg/kg. Besides, the ED (60-80) in the data set on gastric acid secretion is approximately 3 mg/kg. This molecule also gave an LD50 in “LD50 in the mouse” of 8000 mg/kg.

For the molecule `c1ccc(CSc2nc3cc4ccccc4cc3[nH]2)nc1` [2-[(2-pyridylmethyl)thio]-1H-naphth[2,3-d]imidazole], the ED50 in data set [1] was 12 mg/kg. In addition, in the data set with gastric acid secretion, the ED (60-80) is approximately 3 mg/kg. In “LD50 in the mouse”, this molecule displayed an LD50 of more than 5000 mg/kg.

For orientation: ED50 means the midpoint of the dose-response relation. A word on the LD50: it is the dose at which mortality reaches 50%. A low value points to greater toxicity.
